Experimental data taken from article PMC12435405.

Test: Double CuAAC of unprotected bis-azido peptide with triethynylphosphine oxide (1.2 eq), CuBr 10 eq, THPTA 20 eq; two-component cyclisation to ethynyl-ditriazolyl-phosphine oxide (EDPO) cyclic peptide; forms two 1,4-triazoles
Details: the molecule shown is the open-chain precursor, NaOAc buffer (100 mM, pH 5)/MeCN 20%, ~2% DMSO, 1.0 mM, 25.0 °C, 0.083 h

Compound `[N-]=[N+]=NCCCC[C@H](NC(=O)CN)C(=O)N[C@@H](CCCNC(=N)N)C(=O)N[C@@H](CCCNC(=N)N)C(=O)N[C@@H](CCCNC(=N)N)C(=O)N[C@@H](CCCNC(=N)N)C(=O)N[C@@H](CCCNC(=N)N)C(=O)N[C@@H](CCCNC(=N)N)C(=O)N[C@@H](CCCNC(=N)N)C(=O)N[C@@H](CCCNC(=N)N)C(=O)N[C@@H](CCCNC(=N)N)C(=O)N[C@@H](CCCNC(=N)N)C(=O)N[C@@H](CCCCN=[N+]=[N-])C(=O)NCC(N)=O` has a ring closure, isolated yield (49-membered ring) of 18%.
`[N-]=[N+]=NCCCC[C@H](NC(=O)[C@H](Cc1ccc(O)cc1)NC(=O)[C@H](CC(=O)O)NC(=O)CNC(=O)[C@H](CCCNC(=N)N)NC(=O)[C@H](CCCCN)NC(=O)CN=[N+]=[N-])C(N)=O` [N3-Gly(azidoacetyl)-Lys-Arg-Gly-Asp-Tyr-Lys(N3)-NH2] showed a ring closure, isolated yield (30-membered ring) of 41%.
Compound `CC(=O)N[C@@H](CCC(=O)O)C(=O)N[C@H](C(=O)N[C@@H](Cc1ccccc1)C(=O)N[C@@H](CCCCN=[N+]=[N-])C(=O)N[C@@H](CC(=O)O)C(=O)N[C@@H](CC(C)C)C(=O)N[C@@H](Cc1c[nH]c2ccccc12)C(=O)N[C@@H](CCCNC(=N)N)C(=O)N[C@@H](CC(C)C)C(=O)N[C@@H](CC(C)C)C(=O)N[C@@H](CCCCN=[N+]=[N-])C(=O)N[C@@H](CCC(=O)O)C(=O)N[C@@H](CC(N)=O)C(N)=O)[C@@H](C)O` has a ring closure, isolated yield (37-membered ring) of 24%.
In the case of `CC(C)C[C@H](NC(=O)CN=[N+]=[N-])C(=O)N[C@@H](Cc1ccc(O)cc1)C(=O)N[C@@H](CCCNC(=N)N)C(=O)N[C@@H](C)C(=O)N[C@@H](CCCCN=[N+]=[N-])C(N)=O` [N3-Gly(azidoacetyl)-Leu-Tyr-Arg-Ala-Lys(N3)-NH2], the ring closure, isolated yield (27-membered ring) is reported as 39%.
In the case of `[N-]=[N+]=NCCCC[C@H](NC(=O)[C@@H](CCCNC(=N)N)NC(=O)[C@H](CCCNC(=N)N)NC(=O)[C@@H](CCCCN)NC(=O)[C@H](CCCCN)NC(=O)[C@@H](CCCNC(=N)N)NC(=O)CNC(=O)[C@@H](CCCNC(=N)N)NC(=O)[C@H](CCCNC(=N)N)NC(=O)[C@@H](CCCNC(=N)N)NC(=O)[C@@H](N)CCCCN=[N+]=[N-])C(N)=O`, the ring closure, isolated yield (46-membered ring) is reported as 39%.
`[N-]=[N+]=NCCCC[C@H](NC(=O)CN)C(=O)N[C@@H](CCCNC(=N)N)C(=O)N[C@@H](CCCNC(=N)N)C(=O)N[C@@H](CCCNC(=N)N)C(=O)N[C@@H](CCCNC(=N)N)C(=O)N[C@@H](CCCNC(=N)N)C(=O)N[C@@H](CCCNC(=N)N)C(=O)N[C@@H](CCCNC(=N)N)C(=O)N[C@@H](CCCNC(=N)N)C(=O)N[C@@H](CCCCN=[N+]=[N-])C(=O)NCC(N)=O` showed a ring closure, isolated yield (43-membered ring) of 27%.
